Data set [1] relates to [^3H]-arginine transport across the blood-brain and blood-CSF barriers. In words: self-inhibition, in situ perfusion: [^3H]-arginine with 100 μM unlabelled L-arginine. It is filed as in vivo, mouse. Here is the method:
(§1) Self-inhibition experiments were also performed. […] Cross-competition experiments were also performed.
(§2) The percentage change in the RTissue uptake values achieved in the absence or presence of an unlabelled inhibitor can be calculated by means of Eq 4.
(§3) %change=RTissue−RInhibition/RTissue×100 Eq 4
(§4) We define RInhibition as the RTissue uptake in the presence of an inhibitor in the artificial plasma.
(§5) A decrease in the uptake of radiolabelled solute in the presence of unlabelled inhibitor is indicative of a saturable influx transport system. Conversely, an increase in the uptake of radiolabelled solute in the presence of unlabelled inhibitor is indicative of a saturable efflux transport system.

The conditions of data set [2]: pH 7.4.
Protocol: (§6) The lipophilicity of the radiolabelled test molecules was also measured by means of an octanol:saline partition coefficient. […] Centrifugation separated the hydrophobic (octanol) phase and hydrophilic (saline) phase and 100 μL samples in triplicate were taken for radioactive liquid scintillation counting on a Tricarb 2900TR liquid scintillation counter (Perkin-Elmer; Boston, MA, USA). The partition coefficient was calculated as the ratio of radioactivity in the octanol phase to the radioactivity in the aqueous phase.
The subject of the next data set is CAT1. The note with it: HEK293 overexpressing CAT1; read-out: IC50, inhibition of CAT1-mediated cellular uptake of ADMA; cited from earlier work.
Data set [3] concerns [^3H]-ADMA transport across the blood-brain and blood-CSF barriers. Kind of data set: cross-inhibition, in situ perfusion: [^3H]-ADMA with 100 μM unlabelled L-arginine. The class given is in vivo, mouse. The note with it: for inhibition of [^3H]-ADMA uptake: 100 μM unlabelled L-arginine; for inhibition at 100 µM: Mus musculus. Here is the method: as §1, §2, §3, §4, §5
The conditions of data set [4]: 500 μM; isolated incubated rat choroid plexus; cited from earlier work.
A short description of data set [5]: in situ brain/choroid plexus perfusion: CNS uptake of [^3H]-arginine, [^3H]-ADMA and [^14C]-sucrose (multiple-time and single-time uptake analysis). The note with it: for Kin: single-time point analysis, corrected for [^14C]-sucrose; for Kin / [^3H]-ADMA/ [^3H]-arginine, rate of uptake: 10-minute perfusion; for ability to cross the blood-brain and blood-CSF barriers: in situ perfusion; for Kp at 30 min, […] / Kp at […], […]: male, BALB/c, mouse.
Protocol: All animals used in procedures were adult male BALB/c mice (between 23 g and 25 g) sourced from Harlan Laboratories, Oxon, UK, unless otherwise stated.
Animals were weighed immediately before the administration of the anaesthetic to ensure correct dosage. Domitor® (medetomidine hydrochloride) and Vetalar® (ketamine) were both purchased from Harlan Laboratories (Cambridge, UK). All animals were terminally anaesthetised (2 mg/kg Domitor® and 150 mg/kg Vetalar® injected intraperitoneally), and a lack of self-righting and paw-withdrawal reflexes (as surrogate indicators of consciousness) thoroughly checked prior to and during all procedures. If needed, additional anaesthetic was administered via the same route. […] At the end of the in situ brain perfusion procedure the animal was killed by decapitated under non-recovery anaesthesia. Animals were heparinised with 100 units heparin (in 0.9% m/v NaCl(aq), Harlan Laboratories; Oxon, UK), administered via the intraperitoneal route prior to surgery.
The in situ brain/choroid plexus perfusion method is designed to directly perfuse the brain with artificial plasma via a cannula placed in the heart. Artificial plasma is prepared to mimic the ionic composition of blood, and transporter inhibitors can be added in known concentrations and delivered to the brain for defined periods of time.
The left ventricle of the heart was cannulated with a 25G x 10 mm butterfly-winged needle connected to the perfusion circuit. […] The right atrium of the heart was sectioned to allow outflow of the artificial plasma. […] Radiolabelled and unlabelled test molecules were infused into the inflowing artificial plasma for periods up to 30 minutes.
At the set perfusion time a CSF sample was taken by inserting a pulled glass micropipette connected to silicon tubing and a syringe into the cisterna magna. Gentle suction was applied, and CSF was withdrawn. Only clear CSF samples were processed and taken for analysis. Samples contaminated with blood were discarded. The animal was then decapitated and the brain removed. Specific brain samples including the circumventricular organs (CVOs) were taken using a Leica S4E L2 stereomicroscope (Leica; Buckinghamshire, UK). The brain samples included the frontal cortex, caudate nucleus, occipital cortex, hippocampus, hypothalamus, thalamus, pons and cerebellum. The CVOs included the choroid plexus, pituitary gland and pineal gland.
All samples (brain regions, capillary depletion brain homogenate, pellet and supernatant, CVOs, CSF and plasma samples) were solubilised in 0.5 mL tissue solubiliser (Solvable; Perkin-Elmer; Boston, MA, USA). After incubating the samples at room temperature for 48 h, 4 mL scintillation fluid (Lumasafe®; Perkin-Elmer; Boston, MA, USA) was added to each before vigorous vortexing.

In another data set the test system is hCMEC/D3 cells. Conditions: [^3H]-arginine 7 nM; hCMEC/D3 accumulation; cited from earlier work.
Data set [6] is described as follows: capillary depletion analysis after in situ brain perfusion. The note with it: 10-minute perfusion; for Kin: single-time point analysis, corrected for [^14C]-sucrose. It is filed as in vivo, mouse. As for the experimental part:
The microvasculature within a sample of brain tissue can be separated from the brain parenchyma using capillary depletion analysis. Following perfusion, the remaining brain tissue after microdissection of the regions described above (typically 200–300 mg) underwent capillary depletion following a method modified for mouse. […]

Data set [7] in a line: octanol:saline partition coefficient. The note with it: pH 7.4; for octanol-saline partition coefficient: mean ± SEM of 3 tubes.
Protocol: as §6
Setting [8] is: 100μM unlabelled L-arginine, CSF, 10 minutes.

Where “and” joins values, the source holds several entries; their conditions need not be identical. Equal entries are not always repeated. Where two headings read alike, the source gives them in different places.

With `N=C(N)NCCC[C@H](N)C(=O)O` [L-arginine], the “inhibition of [^3H]-arginine uptake” value in data set [1] (setting [8]) is given as 62.2%; in data set [1] (100μM unlabelled arginine, average of capillary depletion samples, 10 minutes) it was “approximately 56%”; in data set [1] (100μM unlabelled arginine, average of eight brain regions, 10-minute perfusion), “approximately 67%”. Further, the “inhibition of [^3H]-arginine distribution” value is listed as 57.3% in [1] (100μM unlabelled arginine, choroid plexus, 10 minutes); 39.4% in data set [1] (100μM unlabelled arginine, pineal gland, 10 minutes); 48.1% in data set [1] (100μM unlabelled arginine, pituitary gland, 10 minutes). For the same molecule, the octanol-saline partition coefficient in data set [2] was 0.00149±0.00016. Also, the 50% inhibitory concentration (IC50) in the data set with CAT1 was 227 µM. The “inhibition of [^3H]-ADMA uptake” value in data set [3] (CSF, pineal gland, choroid plexus and pituitary gland, 10 minutes) is given as “up to 78.6%”; in data set [3] (brain regions, 10 minutes), “up to 80.4%”. In addition, the “effect on [^3H]-ADMA distribution” value in data set [3] (setting [8]) is recorded as “no effect”. For the same molecule, the inhibition at 100 µM in data set [3] (read-out: inhibition of [^3H]-ADMA distribution) was not above 80.8%.
In the case of `CNC(=N)NCCC[C@H](N)C(=O)O` [N^G-methyl-L-arginine], in [4], the “effect on [^3H]-arginine uptake” value is given as “can be inhibited”.
Take `N=C(N)NCCC[C@H](N)C(=O)O` [[^3H]-arginine, reference compound]: the Kin was 1.08 ± 0.24 µL/min/g in data set [5] (CSF); 5.40 ± 0.67 µL/min/g in data set [5] (Caudate nucleus); 5.10 ± 0.50 µL/min/g in data set [5] (Cerebellum); 5.84 ± 0.86 µL/min/g in [5] (Frontal Cortex); 4.72 ± 0.56 µL/min/g in data set [5] (Hippocampus); 7.26 ± 1.76 µL/min/g in data set [5] (Hypothalamus). Moreover, the Kin was 4.98 ± 0.72 µL/min/g in [5] (Occipital Cortex); 5.58 ± 0.97 µL/min/g in data set [5] (Pons); 5.87 ± 1.07 µL/min/g in [5] (Thalamus); 3.97 ± 0.67 µL/min/g in data set [6] (Homogenate); 0.70 ± 0.10 µL/min/g in data set [6] (Pellet); 2.35 ± 0.42 µL/min/g in data set [6] (Supernatant). Also, the “ability to cross the BBB in situ relative to [^3H]-ADMA” value in data set [5] (eight brain regions and capillary depletion samples) is “more than two-fold in most cases”. The “ability to cross the blood-brain and blood-CSF barriers” value in data set [5] is “can cross the blood-brain barrier (BBB) and the blood-CSF barrier”. Further, the Kp at 30 min, […] in [5] (CSF) was 1.2 ± 0.251; in data set [5] (frontal cortex), 1.77 ± 0.316; in data set [5] (pons) it was approximately 1.85. Also, the results for the Kp at […], […] in [5] (CSF) and in data set [5] (frontal cortex) were 0.0441 ± 0.0141 and 0.29 ± 0.0403, respectively. The “Vi relative to [^14C]-sucrose space in the same experiment” value in [5] (multiple-time uptake analysis over 30 minutes, data not shown) is given as “up to 13 fold”. In the data set with hCMEC/D3 cells, the “ability to cross brain capillary endothelial cell membranes compared to [^3H]-ADMA (38 nM)” value is on record as “more than -three to -five-fold”.
As to `N=C(N)NCCC[C@H](N)C(=O)O` [arginine], the inhibition at 100 µM in data set [3] (read-out: inhibition of [^3H]-ADMA (62.5 nM) transport) was in the range of 64.3 to 80.8%.
As for [^3H]-ADMA [reference compound], the “[^3H]-ADMA/ [^3H]-arginine, rate of uptake” value is reported as 249.5% in data set [5] (CSF); 44.6% in data set [5] (Caudate nucleus); 31.7% in data set [5] (Cerebellum); 42.7% in data set [5] (Frontal Cortex); 46.1% in data set [5] (Hippocampus); 41.9% in data set [5] (Hypothalamus). Besides, the “[^3H]-ADMA/ [^3H]-arginine, rate of uptake” value in [5] (Occipital Cortex) was 45.2%; in data set [5] (Pons) it was 44.2%; in data set [5] (Thalamus) it was 35.8%; in data set [6] (Homogenate), 31.9%; in [6] (Pellet), 11.4%; in [6] (Supernatant), 36.6%. Besides, the “uptake into the CSF (CSF to plasma)” value in data set [5] (CSF, […], data uncorrected for [^14C]-sucrose) is recorded as “approximately 4%”. Further, the Kin turned out to be 2.70 ± 0.90 µL/min/g in [5] (CSF); 2.41 ± 0.29 µL/min/g in [5] (Caudate nucleus); 1.62 ± 0.19 µL/min/g in data set [5] (Cerebellum); 2.49 ± 0.35 µL/min/g in data set [5] (Frontal Cortex); 2.17 ± 0.17 µL/min/g in data set [5] (Hippocampus); 3.04 ± 0.30 µL/min/g in data set [5] (Hypothalamus). In addition, the Kin in data set [5] (Occipital Cortex) worked out at 2.25 ± 0.16 µL/min/g; in data set [5] (Pons), 2.46 ± 0.34 µL/min/g; in data set [5] (Thalamus), 2.10 ± 0.17 µL/min/g; in [6] (Homogenate), 1.27 ± 0.56 µL/min/g; in [6] (Pellet), 0.08 ± 0.20 µL/min/g; in data set [6] (Supernatant) it was 0.86 ± 0.16 µL/min/g. The “distribution into the choroid plexus (tissue to plasma)” value was “approximately 40%” in [5] (30 minutes) and “approximately 240%” in [5] (peak at 10 minutes). In addition, the “distribution (RBRAIN, tissue to plasma) corrected for [^14C]-sucrose” value in [5] (frontal cortex, 20 minutes) worked out at 27.64±4.30%; in data set [5] (frontal cortex, 30 minutes), 10.41±2.77%; in data set [5] (frontal cortex, […]), 9.86±1.43%. Further, the “ability to cross the blood-brain and blood-CSF barriers” value in data set [5] is “can cross the blood-brain barrier (BBB) and the blood-CSF barrier”. In data set [5] (multiple-time uptake studies, loss of linearity), the CNS-to-blood efflux result is on record as “significant CNS-to-blood efflux”. Also, in data set [7] (Tube A, B or C), the “octanol-saline partition coefficient, single tube” value is 0.00217 and 0.00237 and 0.00225. The octanol-saline partition coefficient was 0.00226±0.00006 in data set [7] and 0.00226 in [7] (listed as 3H ADMA).

By IC50 is commonly meant the concentration at which inhibition is half-maximal. In general, inhibition refers to the drop in the measured response relative to a control, in per cent.

The record behind these values is PMC11501026, “L-Arginine and asymmetric dimethylarginine (ADMA) transport across the mouse blood-brain and blood-CSF barriers: Evidence of saturable transport at both interfaces and CNS to blood efflux” (PLOS ONE, 2024).
